The values below come from patent publication US8389739B1, “Modulators of retinoid-related orphan receptor gamma” (Orphagen Pharmaceuticals, priority 2006, dated 2013).

Read-outs that look alike come from different tables or passages of the source.

One experiment concerns the target T1, mRORγ (Mus musculus, UniProt P51450).
T1 construct: expressed in transfected cells; host or cells: CHO cells, transient transfection
Kind of experiment: Transcriptional assay, Gal4-mRORγ with luciferase reporter in CHO cells. It counts as cell-based. The method, then: The complete Gal4-mRORγ nucleotide sequence is shown below:
(§1) A firefly luciferase reporter gene for Gal4 DBD hybrid receptors, such as Gal4-RORγ, contains five copies of the Gal4 17-mer response element in its promoter and the coding sequence for firefly luciferase (pG5-luc, Promega). CHO (Chinese Hamster Ovary) cells were cultured in Ham's F12 medium supplemented with 10% fetal calf serum (Gemini Biologicals), 10 μg/ml penicillin and streptomycin, and were maintained in a humidified 37° C. incubator (Thermo Electron, Steri-Cycle) with 5% CO2. 24 hours before transfection, cells were plated in T175 flasks (5×10^6 cells/flask) or T75 flasks (1.7×10^6 cells/flask). Transient transfection of CHO cells was performed using TransIT-CHO reagents (Minis, Madison, Wis.) with a mixing ratio of 2:6:1 between plasmid DNA (in μg), TransIT-CHO (in μl) and CHO-mojo (in μl).
(§2) Plates are maintained at 37° C. in a humidified atmosphere with 7% CO2 overnight. Four (4) hours after cell seeding, compounds dissolved in DMSO at 10 mM were added to cells at final concentrations of 20 micromolar (μM) to 20 nanomolar (nM) in 0.2% DMSO in triplicate plates. Approximately 40 hours later, cytotoxicity in the assay well was characterized by addition of the dye resazurin (O'Brien, Wilson et al. 2000) to a final concentration of 3 μM. […] Percent viability was determined as 2 hour fluorescence, minus background at t=0 hours, normalized to DMSO controls. For detection of luciferase activity, media was removed from plates after the measurement of resazurin conversion, and SteadyLite luciferase reagent (Perkin-Elmer) was added (30 μl/well). Luminescence is detected with a Victor 2-V plate reader (Perkin-Elmer) and normalized to luciferase activity of DMSO control wells alone.

The next experiment deals with T2, mRORγ LBD (Mus musculus, UniProt P51450).
T2 construct: made in house; host or cells: Sf9 insect cells, baculovirus; cleared lysate used directly
T2 sequence (P51450 251-516): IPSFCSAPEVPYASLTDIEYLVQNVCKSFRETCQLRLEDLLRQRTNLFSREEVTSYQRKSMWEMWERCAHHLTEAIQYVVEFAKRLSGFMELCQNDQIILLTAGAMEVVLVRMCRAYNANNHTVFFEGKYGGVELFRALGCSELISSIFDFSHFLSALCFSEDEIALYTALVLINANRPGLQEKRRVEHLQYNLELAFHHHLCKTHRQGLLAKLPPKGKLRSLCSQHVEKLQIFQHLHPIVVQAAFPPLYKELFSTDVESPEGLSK
Briefly: Biochemical assay, coregulatory peptide recruitment to GST-RORγ LBD (FRET). The source says:
GST-RORγ was generated by subcloning the RORγ-LBD into pET-41a, a vector which expresses GST fusion proteins in bacteria.
The cloning steps for GST-RORγ were as follows. The mRORγ LBD was excised from Gal4-mRORγ (see above for cloning steps) at BamHI and HindIII sites of Sequence 1 and cloned into the corresponding sites of pET-41a(+) (EMD Biosciences, San Diego, Calif.). A GST-mRORγ fragment was then excised from pET-41a(+) at XbaI and XhoI sites and cloned into a pcDNA3.1vector (Invitrogen, Carlsbad, Calif.) restricted at NheI and XhoI sites. Plasmid GST-mRORγ-pcDNA3.1 was used as a PCR template to generate a GST-mRORγ fragment that was later cloned into pENTR/D-TOPO vector (Invitrogen, Carlsbad, Calif.) by standard cloning techniques recommended by the manufacturer of the vector. The nucleotide sequence of GST-mRORγ is shown below:
For baculoviral expression of RORγ, the cDNA fragment of GST-RORγ— LBD, was subcloned from pET-41a into the pENTR/D-TOPO vector using a commercially-available kit (BaculoDirect, Invitrogen). Briefly, GST-RORγ carried by pENTR/D-TOPO was transfected into mono-layer Sf9 cells (8×10^5/well in 6-well plates) by Cellfectin (Invitrogen). Sf9 cells were incubated at 27° C. in a non-humidified incubator for 72 hours. Cell media was collected as P1 viral stock and used to further infect Sf9 cells to generate P2 and P3 virus. […] A plaque assay was performed to determine the titer of P3 virus and to isolate single plaques. P4 virus was generated from a single plaque and propagated on a larger scale.
Adherent SF9 cells were infected with baculovirus carrying GST-RORγ and were cultured for 72 hours. Sf9 cell were then subject to a brief sonication in a lysis buffer (20 mM phosphate, pH 6.8, 50 mM KCl, 50 mM NaCl, 0.5 mM EDTA, 50% glycerol, 0.001% NP-40 and 1 mM DTT) and centrifuged at 3000 rpm for 15 minutes. […] Cleared cell lysate was stored at −70° C. and is directly utilized in the coregulatory peptide recruitment assay.
The labeled probes anti-GST-APC and SA-RPE were purchased from Prozyme (San Leandro, Calif.). Compounds were added directly from a DMSO solution to a final concentration of 1-2% DMSO. Fluorescence was measured on a Wallac Victor 2 V plate reader equipped with a 670/40 nm filter (Omega Optical, Brattleboro, Vt.) for APC emission (Channel A) and a 600/25 bandpass filter for monitoring the RPE emission (Channel B).

For experiment [1], the target named is T3, mLXRα (Liver X receptor alpha) (Mus musculus, UniProt Q9Z0Y9).
T3 construct: 172-455; expressed in transfected cells; host or cells: CHO cells, transient transfection
T3 sequence (Q9Z0Y9 172-445 limits assumed): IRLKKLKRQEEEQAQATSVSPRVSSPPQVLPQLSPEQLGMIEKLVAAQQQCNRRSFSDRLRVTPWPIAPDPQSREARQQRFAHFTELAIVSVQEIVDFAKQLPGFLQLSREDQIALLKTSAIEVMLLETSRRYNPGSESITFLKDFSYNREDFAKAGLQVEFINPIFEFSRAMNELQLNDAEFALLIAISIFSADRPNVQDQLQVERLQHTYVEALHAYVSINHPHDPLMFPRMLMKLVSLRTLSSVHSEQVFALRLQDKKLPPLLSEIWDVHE
Briefly: Transcriptional assay of LXRα (Gal4-LXRα hybrid). The experiment is classed as cell-based. The method, then:
as §1, §2
A transcriptional assay for LXRα, using a Gal4-LXRα hybrid, was implemented in order to compare RORγ ligand potencies. In addition to LXRα, transcriptional assays for a number of other major nuclear receptors were developed.

Where [2] appears, read: Table 2, agonists, antagonist OR-376 (1.5 μM) added to reduce basal transcriptional activity, read-out: EC50 in micromolar at mRORγ Transcriptional.
The mark [3] stands for this setting: Table 2, agonists, biotinylated peptide K, 50% of estimated maximum FRET signal, read-out: EC50 in micromolar at mRORγ Biochemical.

T1 sequence (P51450 with tags, fused parts or gaps): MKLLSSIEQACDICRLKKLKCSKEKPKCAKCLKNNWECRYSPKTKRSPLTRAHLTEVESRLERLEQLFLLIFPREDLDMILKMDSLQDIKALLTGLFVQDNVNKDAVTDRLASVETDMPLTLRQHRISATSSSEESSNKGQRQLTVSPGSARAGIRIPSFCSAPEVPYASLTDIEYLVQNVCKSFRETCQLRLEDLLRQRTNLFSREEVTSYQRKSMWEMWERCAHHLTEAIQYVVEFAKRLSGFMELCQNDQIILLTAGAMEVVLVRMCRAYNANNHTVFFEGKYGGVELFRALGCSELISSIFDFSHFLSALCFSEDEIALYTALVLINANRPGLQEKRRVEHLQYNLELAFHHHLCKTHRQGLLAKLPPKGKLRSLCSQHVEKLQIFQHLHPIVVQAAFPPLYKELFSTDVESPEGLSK

Regarding `C[C@@H]1CC[C@@]2(OC1)O[C@H]1C[C@H]3[C@@H]4CC[C@H]5C[C@@H](O)CC[C@]5(C)[C@H]4C(=O)[C@@H](O)[C@]3(C)[C@H]1[C@@H]2C` [OR-345, 5α, 20α, 22α, 25D-SPIROSTAN-3β, 12β-DIOL-11-ONE], the EC50 at mRORγ (Table 3, steroidal antagonists, read-out: Assay EC50 in micromolar transcriptional) worked out at 5 µM; on mRORγ LBD (Table 3, peptide K and 1 μM OR-942, inhibition of the OR-942 baseline by 50%, read-out: Assay EC50 in micromolar biochemical) it was 12.7 µM.

On to `CC(CCC(=O)O)C1CCC2C1CCC1C3CCC(O)CC3C(O)CC21` (centres unmarked) [OR-412, 4-(3,6-Dihydroxy-hexadecahydro-cyclopenta[a]phenanthren-17-yl)-pentanoic acid], for which the EC50 on mRORγ (setting [2]) is above 20 µM; on mRORγ LBD (setting [3]), above 100 µM.

Turning to `COC(=O)CCC(C)C1CCC2C3CC(O)C4CC(O)CCC4(C)C3CCC12C` (centres unmarked) [OR-942, 4-(3,6-Dihydroxy-10,13-dimethyl-hexadecahydro-cyclopenta[a]phenanthren-17-yl)-pentanoic acid methyl ester], the EC50 on mRORγ (setting [2]) is 1.5 µM; at mRORγ LBD (GST-RORγ and peptide K, in the presence of antagonist T0901317 (FIG. 5), read-out: estimated EC50 in biochemical assay, shifted by antagonist), 4 µM; on mRORγ LBD (GST-RORγ and peptide K, without T0901317 (FIG. 5), read-out: estimated EC50 in biochemical assay), 0.4 µM; at mRORγ LBD (setting [3]) it was 0.12 µM. The “activation of RORγ transcriptional activity” value on mRORγ (in the presence of one micromolar antagonist T0901317, CHO cells (FIG. 4A)) is “approximately 8 fold”.

What is called Emax is the maximal effect, on the per cent scale that the assay sets. Take `CCN(c1ccc(C(OC)(C(F)(F)F)C(F)(F)F)cc1)S(=O)(=O)c1ccccc1` [OR-1030, N-Ethyl-N-[4-(2,2,2-trifluoro-1-methoxy-1-trifluoromethyl-ethyl)-phenyl]-benzenesulfonamide]: the EC50 was above 20 µM on mRORγ (Table 1, antagonists, inhibition of basal Gal4-mRORγ transcription in CHO cells, read-out: Assay EC50 in micromolar at mRORγ Transcriptional); above 20 µM on mRORγ (Table 7, taken from Table 1, read-out: Assay EC50 in micromolar at mRORγ Transcriptional); above 100 µM on mRORγ LBD (Table 1, mRORγ and peptide K1, read-out: Assay EC50 in micromolar at mRORγ Biochemical); above 100 µM at mRORγ LBD (Table 7, taken from Table 1 (peptide K1), read-out: Assay EC50 in micromolar at mRORγ Biochemical); above 100 µM in experiment [1] (Table 7, no unit printed for this column (b114 gives 1.5 μM for OR-1050), read-out: Transcriptional Assay of LXRα EC50). In addition, the Emax in experiment [1] was below 5%.

Consider `CCN(c1ccc(C(O)(C(F)(F)F)C(F)(F)F)cc1)S(=O)(=O)c1ccccc1` [OR-1031, N-Ethyl-N-[4-(2,2,2-trifluoro-1-hydroxy-1-trifluoromethyl-ethyl)-phenyl]-benzenesulfonamide], for which the EC50 came to 1.4 µM on mRORγ (Assay EC50 in micromolar at mRORγ Transcriptional, Table 1, antagonists, inhibition of basal Gal4-mRORγ transcription in CHO cells); 1.4 µM on mRORγ (Assay EC50 in micromolar at mRORγ Transcriptional, Table 7, taken from Table 1); 3.5 µM at mRORγ LBD; 1.4 µM in experiment [1]. Also, the maximum response (Emax) in experiment [1] is above 80%.

Regarding `CC(CCCO)C1CCC2C3CC(O)C4CC(O)CCC4(C)C3CCC12C` (centres unmarked) [OR-12863, 17-(4-Hydroxy-1-methyl-butyl)-10,13-dimethyl-hexadecahydro-cyclopenta[a]phenanthrene-3,6-diol], the EC50 at mRORγ (setting [2]) was 4.1 µM; at mRORγ LBD (setting [3]), 0.67 µM.

In the case of `COCCCC(C)C1CCC2C3CC(O)C4CC(O)CCC4(C)C3CCC12C` (centres unmarked) [OR-12864, 17-(4-Methoxy-1-methyl-butyl)-10,13-dimethyl-hexadecahydro-cyclopenta[a]phenanthrene-3,6-diol], the EC50 was 6 µM at mRORγ (setting [2]) and 0.23 µM at mRORγ LBD (setting [3]).

For the compound `CC(CCC(C)(C)O)C1CCC2C3CC(O)C4CC(O)CCC4(C)C3CCC12C` (centres unmarked) [OR-12865, 17-(4-Hydroxy-1,4-dimethyl-pentyl)-10,13-dimethyl-hexadecahydro-cyclopenta[a]phenanthrene-3,6-diol], the EC50 is 8.3 µM on mRORγ (setting [2]) and 0.21 µM on mRORγ LBD (setting [3]).

As for `COC(C)(C)CCC(C)C1CCC2C3CC(O)C4CC(O)CCC4(C)C3CCC12C` (centres unmarked) [OR-12866, 17-(4-Methoxy-1,4-dimethyl-pentyl)-10,13-dimethyl-hexadecahydro-cyclopenta[a]phenanthrene-3,6-diol], the EC50 at mRORγ (setting [2]) was 0.56 µM; at mRORγ LBD (setting [3]), 0.14 µM.

Take `CNC(=O)CCC(C)C1CCC2C1CCC1C3CCC(O)CC3C(O)CC21` (centres unmarked) [OR-12867, 4-(3,6-Dihydroxy-hexadecahydro-cyclopenta[a]phenanthren-17-yl)-pentanoic acid methylamide]: the EC50 on mRORγ (setting [2]) is above 20 µM.

Consider `CC(CCC(=O)N(C)C)C1CCC2C3CC(O)C4CC(O)CCC4(C)C3CCC12C` (centres unmarked) [OR-12868, 4-(3,6-Dihydroxy-10,13-dimethyl-hexadecahydro-cyclopenta[a]phenanthren-17-yl)-pentanoic acid dimethylamide], for which the EC50 at mRORγ (setting [2]) is 5.2 µM; at mRORγ LBD (setting [3]) it was 0.56 µM.

In the case of `CC(CCC(=O)N1CCCCC1)C1CCC2C1CCC1C3CCC(O)CC3C(O)CC21` (centres unmarked) [OR-12869, 4-(3,6-Dihydroxy-hexadecahydro-cyclopenta[a]phenanthren-17-yl)-1-piperidin-1-yl-pentan-1-one], the EC50 on mRORγ (setting [2]) is above 20 µM.

As to `CC(=O)CCC(C)C1CCC2C3CC(O)C4CC(O)CCC4(C)C3CCC12C` (centres unmarked) [OR-12870, 5-(3,6-Dihydroxy-10,13-dimethyl-hexadecahydro-cyclopenta[a]phenanthren-17-yl)-hexan-2-one], the EC50 on mRORγ (setting [2]) was 4.1 µM.

As to `CC(O)CCC(C)C1CCC2C3CC(O)C4CC(O)CCC4(C)C3CCC12C` (centres unmarked) [OR-12871, 17-(4-Hydroxy-1-methyl-pentyl)-10,13-dimethyl-hexadecahydro-cyclopenta[a]phenanthrene-3,6-diol], the EC50 on mRORγ (setting [2]) was 8.3 µM; at mRORγ LBD (setting [3]), 0.25 µM.
